Holding throughout (type): cell-based
Data set [1] relates to neonatal rat ventricular myocytes (NRVMs). The data set can be described thus: MTT assay of cell viability. How it is done: To assess NRVM viability, the Vybrant MTT cell proliferation assay kit was used (Molecular probes). Initially, NRVM were seeded on 96-well plates at ˜3×10^4 cells/well (˜10^5 cells/cm^2, the same density as in other assays) and were treated identically as in the siRNA transfection assays (including transfection, serum starvation and neurohormonal stimulation). In addition, increasing number of cells ranging from 2×10^4 to 14×10^4 were used to create a standard curve and to calculate the linearity between absorbance at 595 nm and cell number. Prior to labelling with MTT, the medium was removed and 100 μl of fresh medium was added to each well. The same amount of medium (100 μl) without cells was used as negative control (blank). The cells and the negative control were labeled with 10 μl of 12 mM MTT/well and were incubated at 37° C. for 4 h. Subsequently, 100 μl of SDS-HCL solution was added to each well, mixed thoroughly and incubated for 4 h at 37° C. Finally, the absorbance at 595 nm was measured on a plate reader and the % of cell viability was calculated using the formula:
% of viability=(A595sample/A595reference)×100

Data set [2] shares this test system. The data set can be described thus: RT-qPCR of transcript expression in siRNA-transfected NRVMs with or without aldosterone. How it is done:
Total RNA were extracted from human and mouse tissues and cultured neonatal rat ventricular myocytes (NRVMs) using the Tissue RNA Purification Kit (Norgen Biotek) and the TRIzol reagent (Invitrogen) respectively, according to the manufacturer's instructions. RNA was quantified with the NanoDrop-2000c instrument (Thermo Scientific), and cDNA synthesis was performed with iScript reverse transcription Supermix (BioRad). Quantitative RT-PCR was performed on a CFX96 thermal cycler using the iTac Universal SYBR green Supermix (Biorad) and specific primers. Gene expression was normalized to Rps13, and relative mRNA expression was quantified using the ΔΔCt method. For data robustness and reproducibility, target genes were also normalized to Rps15.
(§1) Neonatal Sprague-Dawley rats were euthanized by decapitation within the first 24 h after birth and beating hearts heart fragments were rinsed in 1×PBS without pen/strep and digested in 0.1% Trypsin solution in 1×PBS (0.8 ml of 0.1% Trypsin solution per heart) for 15 min at 37° C. The supernatant was collected and the remaining tissue was further digested repeatedly for a total of 10 times, with serial collection of supernatant. Digestion was stopped on ice with 10% FBS, and cells were collected from pooled supernatant by centrifugation at 1500 rpm for 5 min at room temperature. The cell pellet was resuspended in an adequate volume of complete medium. Cells were counted and plated in 10 cm dishes for ˜1 h at 37° C., 5% CO2 at a density of 10×10^6 cells per plate (pre-plating). During this pre-plating step, non-myocytes including fibroblasts adhere to the plate, while NRVMs remain in suspension. The supernatant cells were subsequently seeded on protamine sulfate coated dishes (10^5 cells/cm^2) and were left to attach for 12 h. NRVM primary cultures were maintained in MEM medium supplemented with 10% FBS, penicillin (100 units/ml)/streptomycin (100 μg/ml) (Gibco-Fisher Scientific). 1-β-D-Arabinofuranosyl-cytosine (AraC 20 μM, Calbiochem-Sigma) was also added to the culture medium to inhibit fibroblast proliferation.
At 24 h following isolation, NRVMs were transfected with siRNAs using the Dharmafect #1 transfection reagent according to the manufacturers protocol (Dharmacon). NRVMs were plated at a density of ˜10^5 cells/cm^2 and transfected with 10 nM of a pool of either non-targeting siRNA (siRNA-scramble control) or siRNAs against the rat Wipi1 gene (siRNA-Wipi1). All siRNAs were ON-TARGETplus SMARTpool siRNAs (Dharmacon). Following a 24 h transfection period, the medium was changed to serum-free DMEM:F12 supplemented with penicillin (100 units/ml)/streptomycin (100 μg/ml). […] Serum-free DMEM:F12 culture medium without any aldosterone was used as a comparative control to neurohormone activation.

The test system is the same in data set [3]. The data set can be described thus: MitoSOX Red analysis of mitochondrial superoxide level. The settings on record: Aldo 1 μM 48 h, si-scramble control NRVMs. Here is the method:
Neonatal rat ventricular myocytes (NRVMs) were transfected with scramble or Wipi1-specific siRNAs and then stimulated with aldosterone (Aldo, 1 μM, 48 h) or hydrogen peroxide (H2O2, 50 μM, 2 h).
(§2) At 24 h following isolation, NRVMs were transfected with siRNAs using the Dharmafect #1 transfection reagent according to the manufacturers protocol (Dharmacon). NRVMs were plated at a density of ˜10^5 cells/cm^2 and transfected with 10 nM of a pool of either non-targeting siRNA (siRNA-scramble control) or siRNAs against the rat Wipi1 gene (siRNA-Wipi1). All siRNAs were ON-TARGETplus SMARTpool siRNAs (Dharmacon). Following a 24 h transfection period, the medium was changed to serum-free DMEM:F12 supplemented with penicillin (100 units/ml)/streptomycin (100 μg/ml). After ˜12 h of serum-starvation, the cells were incubated with aldosterone […] in serum-free DMEM:F12 culture medium for 48 h at 37° C., 5% […]. Serum-free DMEM:F12 culture medium without any aldosterone was used as a comparative control to neurohormone activation.
Mitochondrial superoxide level was monitored with the MitoSOX™ Red mitochondrial superoxide indicator for live-cell imaging (Molecular Probes). […] The red fluorescent signal was measured with ImageJ software and normalized to the brightfield signal.

For data set [4] the test system is unchanged. The data set can be described thus: Western blot of protein expression in siRNA-transfected NRVMs with or without aldosterone. How it is done: Total proteins were extracted from tissues and NRVMs with the T-PER lysis buffer (Thermo Scientific) supplemented with the Halt Protease and Phosphatase Inhibitor Cocktail (Thermo Scientific). Protein extraction from mouse tissues was performed using a BeadBug Benchtop Homogenizer and zirconium beads (Sigma). Protein quantification was performed with the BCA reagent (Pierce). Total protein samples were resolved on NuPAGE 4-12% Bis-Tris gradient gels (Invitrogen) and transferred to 0.2 μm Nitrocellulose membranes (Biorad) for immunoblotting. Membranes were stained with the LI-COR Revert Total Protein Stain kit and analyzed as per manufacturer's instructions. Membranes were blocked and then incubated with primary antibodies as detailed in Table 2 at 4° C. overnight. Membranes were then washed and incubated with the appropriate LI-COR secondary antibody. Membranes were imaged using the ODYSSEY-Classic infrared system from LI-COR. Protein expression was normalized to total protein.
as §1, §2
Background: A western blot detects proteins with antibodies after separation by electrophoresis.

Data set [5] shares this test system. The data set can be described thus: LC3-II/I ratio (Western) in NRVMs treated with bafilomycin A or chloroquine, canonical versus non-canonical autophagy. Particulars: BafA 100 nM, 1 h; si-Wipi1 and si-scramble transfected NRVMs.
Where [6] appears, read: NRVMs, si-Wipi1 vs si-scramble, with or without aldosterone.
The mark [7] stands for this setting: aldosterone 48 h, si-scramble control NRVMs, serum starved.

In the case of `C[C@]12CCC(=O)C=C1CC[C@@H]1[C@@H]2[C@@H](O)C[C@]2(C=O)[C@@H](C(=O)CO)CC[C@@H]12` [aldosterone], the cell viability entry in data set [1] was “Neither aldosterone stimulation nor silencing Wipi1 negatively impacted”. Besides, the “Snap47 or Prdx5 transcript expression” value in data set [2] (setting [6]) is given as “Neither silencing Wipi1 nor stimulation with aldosterone affected”. Further, the Map4 transcript levels entry in data set [2] (aldosterone stimulation, in either si-Wipi1 or si-scramble NRVMs) was “did not affect”. In data set [2] (aldosterone, both si-Wipi1 and si-scramble NRVMs), the Hspb6 transcript expression entry is reported as “stimulated”. The “expression of Nppa, Nppb, Acta1, and Myh7 (fetal gene program)” value in data set [2] (si-scramble control NRVMs, Aldo 1 μM 48 h) is “significantly increased”. In data set [3], the mitochondrial superoxide levels result is “increased”. In data set [4] (setting [6]), the Hspb6 protein expression result is “consistent with transcript data” and the “Snap47 or Prdx5 protein expression” value was “Neither silencing Wipi1 nor stimulation with aldosterone affected”. Moreover, the Ser16-HSPB6 phosphorylation result in data set [4] (aldosterone 48 h, si-scramble NRVMs, serum starved) was “did decrease”. In data set [4] (setting [7]), the BECN1 expression entry is “did not affect” and the LC3-lipidation result was “did not affect”. For the same molecule, the Map4 protein expression result in data set [4] (aldosterone, si-scramble control NRVMs) is “did induce”.

Turning to `CO/C1=C\C(C)=C\[C@@H](C)[C@@H](O)[C@@H](C)C/C(C)=C/C=C/[C@H](OC)[C@@H]([C@@H](C)[C@@H](O)[C@H](C)[C@@]2(O)C[C@@H](O)[C@H](C)[C@@H](C(C)C)O2)OC1=O` [BafA, bafilomycin A], the LC3-II/I ratio entry in data set [5] is “increased”.

Source of the values: patent US20210275646A1, “PHARMACOLOGIC TREATMENT FOR RIGHT VENTRICULAR FAILURE” (The Trustees of Columbia University in the City of New York, priority 2018, published 2021).
